Measurements as given in patent publication US10766902B2, “Wee-1 inhibiting pyrazolopyrimidinone compounds” (ALMAC DISCOVERY LIMITED, priority 2016, dated 2020).
Like-named read-outs stand apart in the source and are kept apart here.

Experiments:
[1] = target: MAPK14 (p38 alpha) (Homo sapiens (Human), UniProt Q16539); assay: SelectScreen Kinase Profiling: MAPK14 (p38 alpha); assay type: biochemical; details: tested at 300-350 nM
Source text: (§1) Table 4 below highlights the selectivity of a representative compound of the invention, Example 5, against a panel of 50 kinases (assessed using the Invitrogen SelectScreen® Kinase Profiling Service).

[2] = test system: phosphorylation of Cdc2 at Tyr15; assay: ELISA for phosphorylation of Cdc2 at Tyr15 in HT-29 / HCT-116 cells; assay type: cell-based; details: Homo sapiens
Procedure: Method 2: Determining the Effect of Compounds on the Phosphorylation of Cdc2 at Tyr15
The colorectal cancer cell lines HT-29 and HCT-116 were purchased from the ATCC and routinely maintained in McCoy's Medium (Invitrogen) supplemented with 10% Foetal Calf Serum.
The cells were trypsinised from their growing vessel and counted, 100 μL of cell suspension containing 6000 cells was pipetted into black 96 well Co-star plates and incubated overnight to allow adherence to the surface at a temperature of 37° C. and an atmosphere of 5% CO2. Test compounds were formulated in DMSO and diluted in foetal calf serum supplemented medium. Incubating medium was removed by aspiration and diluted drug supplemented medium added to each well.
The plate was returned to the incubator for an additional eight hours at 37° C. and an atmosphere of 5% CO2. Post incubation, the drug supplemented medium was aspirated from each well and the cells were washed once in ice-cold phosphate buffered saline (PBS). 100 μL of cell lysis buffer (Cell Signalling Technologies #9803) containing 20 mM Tris, 150 mM NaCl, 1 mM EDTA, 1 mM EGTA, 1% Triton-X100, 2.5 mM sodium pyrophosphate, 1 mM glycerophosphate, 1 mM Na3VO4 and 1 μg/mL leupeptin was added to each well of the 96 well plate and incubated at 4° C. for 30 min. The samples on the plate were snap frozen at −80° C. until required. Immediately before the continuation of the assay, the sample plate was thawed and centrifuged at 4° C. for 10 min and the supernatant transferred to secondary tubes or 96 well plate.
Cell supernatant was mixed in a ratio of 1:1 with sample dilutent buffer and vortexed for one minute. 100 μL of diluted sample was pipetted into pre-coated plates containing a rabbit polyclonal antibody for phospho-cdc2 (Tyr15) (Cell Signalling Technologies PathScan kit #7176). The plate was sealed and incubated overnight at 4° C.
The plate seal was removed and the well contents aspirated, followed by 3×5 min washes with 200 μL of diluted wash buffer. Between each wash the plate was tapped firmly onto blotting paper to ensure the removal of all kit solution. 100 μL of kit detection antibody was added to each well and the plate re-sealed and incubated at 37° C. for 1 h. Post incubation the plate was washed and processed in a similar manner to that previously described.
100 μL of horseradish peroxidise-linked secondary antibody was added to each test well, the plate sealed and incubated for thirty minutes at 37° C. Post incubation, the plate was washed as previously stated, followed by the addition of 100 μL of 3,3′,5,5′ tetramethylbenzidine (TMB reagent). The plate was sealed and incubated at RT for 30 min.
100 μL of stop solution was added to each well and the underside of the plate wiped with a lint-free tissue, prior to spectrophotometric determination. Absorbance from each well was read at 450 nm within 30 min of the addition of the stop solution.
The percentage of phospho-cdc2 was calculated compared to DMSO control and plotted versus the concentration of inhibitor using GraphPad Prism. Data was fitted using non-linear regression analysis and IC50 values generated.

[3] = target: TEK (Tie2) (Homo sapiens (Human), UniProt Q02763); assay: SelectScreen Kinase Profiling: TEK (Tie2); assay type: biochemical; details: tested at 300-350 nM
Source text: as §1

[4] = target: IGF1R (Homo sapiens (Human), UniProt P08069); assay: SelectScreen Kinase Profiling: IGF1R; assay type: biochemical; details: tested at 300-350 nM
Source text: as §1

[5] = target: FRAP1 (mTOR) (Homo sapiens (Human), UniProt P42345); assay: SelectScreen Kinase Profiling: FRAP1 (mTOR); assay type: biochemical; details: tested at 300-350 nM
Source text: as §1

[6] = target: PDGFRB (PDGFR beta) (Homo sapiens (Human), UniProt P09619); assay: SelectScreen Kinase Profiling: PDGFRB (PDGFR beta); assay type: biochemical; details: tested at 300-350 nM
Source text: as §1

[7] = target: CHEK1 (CHK1) (Homo sapiens (Human), UniProt O14757); assay: SelectScreen Kinase Profiling: CHEK1 (CHK1); assay type: biochemical; details: tested at 300-350 nM
Source text: as §1

[8] = target: MAPK8 (JNK1) (Homo sapiens (Human), UniProt P45983); assay: SelectScreen Kinase Profiling: MAPK8 (JNK1); assay type: biochemical; details: tested at 300-350 nM
Source text: as §1

[9] = target: RPS6KB1 (p70S6K) (Homo sapiens (Human), UniProt P23443); assay: SelectScreen Kinase Profiling: RPS6KB1 (p70S6K); assay type: biochemical; details: tested at 300-350 nM
Source text: as §1

[10] = target: SRC (Homo sapiens (Human), UniProt P12931); assay: SelectScreen Kinase Profiling: SRC; assay type: biochemical; details: tested at 300-350 nM
Source text: as §1

[11] = target: MARK2 (Homo sapiens (Human), UniProt Q7KZI7); assay: SelectScreen Kinase Profiling: MARK2; assay type: biochemical; details: tested at 300-350 nM
Source text: as §1

[12] = target: INSR (Homo sapiens (Human), UniProt P06213); assay: SelectScreen Kinase Profiling: INSR; assay type: biochemical; details: tested at 300-350 nM
Source text: as §1

[13] = target: EGFR (ErbB1) (Homo sapiens (Human), UniProt P00533); assay: SelectScreen Kinase Profiling: EGFR (ErbB1); assay type: biochemical; details: tested at 300-350 nM
Source text: as §1

[14] = target: RPS6KA3 (RSK2) (Homo sapiens (Human), UniProt P51812); assay: SelectScreen Kinase Profiling: RPS6KA3 (RSK2); assay type: biochemical; details: tested at 300-350 nM
Source text: as §1

[15] = target: SYK (Homo sapiens (Human), UniProt P43405); assay: SelectScreen Kinase Profiling: SYK; assay type: biochemical; details: tested at 300-350 nM
Source text: as §1

[16] = test system: panel of 50 kinases; assay: Invitrogen SelectScreen Kinase Profiling Service, selectivity over the panel; assay type: biochemical; details: compared with compounds of the prior art
Source text: as §1

[17] = test system: A427 cells; assay: Cell viability (CellTiter-Glo), A427; assay type: cell-based; details: Homo sapiens, A-427; cell viability after 72 hours
Procedure: All cell lines (HT29, A427, A498, SKLU-1) were obtained from the American Type Culture Collection (ATCC), maintained in the recommended media supplemented with 10% (v/v) FBS, 1% (v/v) Penicillin/streptomycin and kept at 37° C. in a humidified atmosphere with 5% CO2. Cells were seeded in 96 wp format typically at a seeding density of 3500-5000 cells/well and treated after 24 hours with increasing concentration of compound from 0 to 100 μM in ½ log unit increments. Cell viability was assessed after 72 hours (HT29, A427) or after 6 days (SKLU-1, A498) by CellTiter-Glo® as recommended by the manufacturer's instructions (Promega). Analysis and EC50 values were derived using GraphPadPrism.

Chain of RPS6KA3 (RSK2) (P51812 whole entry): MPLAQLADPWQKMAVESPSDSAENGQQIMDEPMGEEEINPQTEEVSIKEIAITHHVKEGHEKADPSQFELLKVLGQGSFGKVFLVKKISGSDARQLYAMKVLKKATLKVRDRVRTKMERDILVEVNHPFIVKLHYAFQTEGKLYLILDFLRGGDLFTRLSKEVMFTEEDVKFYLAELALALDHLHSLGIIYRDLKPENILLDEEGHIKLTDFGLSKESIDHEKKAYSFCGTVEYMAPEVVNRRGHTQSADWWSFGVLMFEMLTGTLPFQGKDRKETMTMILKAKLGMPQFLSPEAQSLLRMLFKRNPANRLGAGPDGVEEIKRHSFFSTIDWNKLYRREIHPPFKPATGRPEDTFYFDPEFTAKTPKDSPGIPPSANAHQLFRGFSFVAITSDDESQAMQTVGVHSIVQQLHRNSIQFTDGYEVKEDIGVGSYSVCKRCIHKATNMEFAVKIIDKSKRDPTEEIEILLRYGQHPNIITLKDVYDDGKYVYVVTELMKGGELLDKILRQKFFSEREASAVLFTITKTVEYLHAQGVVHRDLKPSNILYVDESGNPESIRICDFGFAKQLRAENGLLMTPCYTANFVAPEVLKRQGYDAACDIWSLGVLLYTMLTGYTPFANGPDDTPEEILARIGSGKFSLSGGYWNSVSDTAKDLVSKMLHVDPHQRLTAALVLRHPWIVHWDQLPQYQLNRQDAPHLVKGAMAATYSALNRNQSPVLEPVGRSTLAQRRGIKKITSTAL
Chain of CHEK1 (CHK1) (O14757 whole entry): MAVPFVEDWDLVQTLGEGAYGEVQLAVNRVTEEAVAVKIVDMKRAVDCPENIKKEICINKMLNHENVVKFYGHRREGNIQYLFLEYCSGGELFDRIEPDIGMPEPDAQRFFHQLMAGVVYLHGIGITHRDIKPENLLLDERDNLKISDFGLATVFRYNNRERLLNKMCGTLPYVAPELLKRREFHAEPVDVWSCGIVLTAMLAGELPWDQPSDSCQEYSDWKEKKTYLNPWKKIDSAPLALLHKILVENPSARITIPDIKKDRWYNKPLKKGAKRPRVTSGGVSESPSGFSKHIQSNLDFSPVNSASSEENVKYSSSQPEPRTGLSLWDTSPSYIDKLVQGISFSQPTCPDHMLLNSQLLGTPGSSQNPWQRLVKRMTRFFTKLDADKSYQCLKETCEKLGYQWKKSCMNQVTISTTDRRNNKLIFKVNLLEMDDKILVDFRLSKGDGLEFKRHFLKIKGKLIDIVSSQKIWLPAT
Chain of MARK2 (Q7KZI7 whole entry): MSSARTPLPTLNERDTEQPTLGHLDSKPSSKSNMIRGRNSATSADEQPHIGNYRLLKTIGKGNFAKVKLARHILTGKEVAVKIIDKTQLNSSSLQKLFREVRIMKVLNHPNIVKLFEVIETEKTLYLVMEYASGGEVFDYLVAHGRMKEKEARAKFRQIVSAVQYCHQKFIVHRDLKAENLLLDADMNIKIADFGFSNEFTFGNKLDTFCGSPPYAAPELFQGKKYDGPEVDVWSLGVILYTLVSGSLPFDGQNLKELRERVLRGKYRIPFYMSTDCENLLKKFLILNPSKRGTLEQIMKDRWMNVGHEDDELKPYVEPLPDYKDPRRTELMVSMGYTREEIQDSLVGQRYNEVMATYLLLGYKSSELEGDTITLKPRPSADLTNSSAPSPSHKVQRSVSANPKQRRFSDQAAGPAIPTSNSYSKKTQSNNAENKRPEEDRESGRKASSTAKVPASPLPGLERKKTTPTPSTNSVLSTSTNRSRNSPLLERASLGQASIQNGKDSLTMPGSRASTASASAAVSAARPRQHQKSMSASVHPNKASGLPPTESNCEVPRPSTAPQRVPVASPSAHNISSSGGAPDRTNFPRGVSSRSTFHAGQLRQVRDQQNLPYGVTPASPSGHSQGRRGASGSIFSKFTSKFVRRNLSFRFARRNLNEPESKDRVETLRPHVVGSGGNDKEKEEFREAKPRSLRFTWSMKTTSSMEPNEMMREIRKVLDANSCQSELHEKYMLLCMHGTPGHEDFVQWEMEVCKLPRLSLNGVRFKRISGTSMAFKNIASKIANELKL
Chain of RPS6KB1 (p70S6K) (P23443 whole entry): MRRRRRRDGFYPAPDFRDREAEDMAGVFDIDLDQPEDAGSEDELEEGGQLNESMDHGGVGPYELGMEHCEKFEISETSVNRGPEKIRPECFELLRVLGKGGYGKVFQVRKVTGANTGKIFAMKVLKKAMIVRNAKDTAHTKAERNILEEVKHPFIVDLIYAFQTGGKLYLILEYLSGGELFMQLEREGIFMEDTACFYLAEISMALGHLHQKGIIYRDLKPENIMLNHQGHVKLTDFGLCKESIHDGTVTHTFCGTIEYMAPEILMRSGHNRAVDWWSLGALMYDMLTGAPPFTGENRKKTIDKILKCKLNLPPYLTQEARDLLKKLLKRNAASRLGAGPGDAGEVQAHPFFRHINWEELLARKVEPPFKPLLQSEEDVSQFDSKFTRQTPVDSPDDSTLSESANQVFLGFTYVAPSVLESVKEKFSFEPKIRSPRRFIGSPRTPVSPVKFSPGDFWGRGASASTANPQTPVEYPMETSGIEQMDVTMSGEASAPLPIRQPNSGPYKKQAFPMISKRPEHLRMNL
Chain of PDGFRB (PDGFR beta) (P09619 33-1106): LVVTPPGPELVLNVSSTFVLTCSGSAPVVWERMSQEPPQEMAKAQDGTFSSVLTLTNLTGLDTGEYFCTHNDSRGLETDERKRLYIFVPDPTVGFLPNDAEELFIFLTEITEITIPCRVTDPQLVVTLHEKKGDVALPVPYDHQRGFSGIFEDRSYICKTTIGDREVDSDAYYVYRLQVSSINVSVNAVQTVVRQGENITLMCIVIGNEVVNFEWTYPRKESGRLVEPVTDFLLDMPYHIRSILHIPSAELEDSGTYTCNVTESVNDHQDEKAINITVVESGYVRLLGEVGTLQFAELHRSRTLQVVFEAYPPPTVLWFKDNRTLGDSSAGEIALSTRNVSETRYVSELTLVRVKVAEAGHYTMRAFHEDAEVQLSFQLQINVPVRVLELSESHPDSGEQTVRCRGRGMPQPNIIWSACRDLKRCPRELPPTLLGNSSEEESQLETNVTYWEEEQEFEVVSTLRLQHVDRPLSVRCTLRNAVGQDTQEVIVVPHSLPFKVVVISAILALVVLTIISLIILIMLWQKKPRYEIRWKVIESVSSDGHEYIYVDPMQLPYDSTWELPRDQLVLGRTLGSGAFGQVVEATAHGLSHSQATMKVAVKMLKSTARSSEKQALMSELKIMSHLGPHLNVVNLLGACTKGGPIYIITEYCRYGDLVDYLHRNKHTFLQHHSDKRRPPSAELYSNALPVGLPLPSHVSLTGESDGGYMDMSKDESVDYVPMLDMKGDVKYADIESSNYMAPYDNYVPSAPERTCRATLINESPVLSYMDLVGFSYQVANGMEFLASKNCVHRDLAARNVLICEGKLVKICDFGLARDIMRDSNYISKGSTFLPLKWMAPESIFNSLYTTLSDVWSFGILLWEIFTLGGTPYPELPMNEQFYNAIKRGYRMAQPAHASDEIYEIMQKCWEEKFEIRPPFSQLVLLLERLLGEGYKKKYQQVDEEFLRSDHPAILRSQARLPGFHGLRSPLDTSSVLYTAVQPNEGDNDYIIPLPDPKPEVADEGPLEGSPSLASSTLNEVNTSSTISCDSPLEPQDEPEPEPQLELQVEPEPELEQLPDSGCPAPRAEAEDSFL
Chain of IGF1R (P08069 31-1367): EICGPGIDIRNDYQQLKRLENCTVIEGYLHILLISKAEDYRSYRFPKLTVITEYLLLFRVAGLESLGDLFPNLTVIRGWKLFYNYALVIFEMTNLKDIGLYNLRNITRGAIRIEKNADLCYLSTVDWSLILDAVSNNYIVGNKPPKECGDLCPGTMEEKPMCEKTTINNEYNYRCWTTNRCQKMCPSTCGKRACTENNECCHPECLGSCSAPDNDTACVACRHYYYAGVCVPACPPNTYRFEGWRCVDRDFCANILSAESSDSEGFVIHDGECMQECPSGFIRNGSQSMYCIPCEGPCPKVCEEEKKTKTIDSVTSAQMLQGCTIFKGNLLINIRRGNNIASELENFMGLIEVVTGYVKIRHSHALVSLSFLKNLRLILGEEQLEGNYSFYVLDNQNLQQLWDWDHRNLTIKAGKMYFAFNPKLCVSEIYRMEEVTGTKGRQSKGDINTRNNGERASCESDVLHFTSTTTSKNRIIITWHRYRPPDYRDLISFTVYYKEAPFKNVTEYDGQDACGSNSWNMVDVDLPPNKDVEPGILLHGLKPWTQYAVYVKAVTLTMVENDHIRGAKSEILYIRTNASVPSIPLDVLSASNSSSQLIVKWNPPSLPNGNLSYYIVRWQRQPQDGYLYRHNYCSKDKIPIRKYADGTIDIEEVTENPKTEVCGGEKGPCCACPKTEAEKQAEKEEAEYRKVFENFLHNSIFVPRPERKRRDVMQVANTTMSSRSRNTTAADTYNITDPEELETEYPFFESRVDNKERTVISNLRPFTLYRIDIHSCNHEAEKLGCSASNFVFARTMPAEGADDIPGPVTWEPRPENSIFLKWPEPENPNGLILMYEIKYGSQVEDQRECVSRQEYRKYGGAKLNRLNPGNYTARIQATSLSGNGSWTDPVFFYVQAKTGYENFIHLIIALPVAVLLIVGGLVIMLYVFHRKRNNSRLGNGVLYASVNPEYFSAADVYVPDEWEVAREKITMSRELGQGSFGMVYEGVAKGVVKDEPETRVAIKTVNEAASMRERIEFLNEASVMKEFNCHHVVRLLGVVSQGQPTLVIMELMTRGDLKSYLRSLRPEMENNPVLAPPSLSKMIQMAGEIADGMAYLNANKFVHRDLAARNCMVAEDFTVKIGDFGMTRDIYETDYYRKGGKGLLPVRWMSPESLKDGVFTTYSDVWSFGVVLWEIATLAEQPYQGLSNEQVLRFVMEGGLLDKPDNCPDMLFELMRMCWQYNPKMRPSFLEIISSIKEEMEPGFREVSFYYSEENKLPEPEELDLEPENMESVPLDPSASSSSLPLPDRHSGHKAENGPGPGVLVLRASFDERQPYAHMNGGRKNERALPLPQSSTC

C=CCn1c(=O)c2cnc(Nc3ccc(N4CCN(C)CC4)cc3)nc2n1-c1cccc(N=S(C)(C)=O)n1 [Example 5, 1-(6-{[Dimethyl(oxo)-λ^6-sulfanylidene]amino}pyridine-2-yl)-6-{[4-(4-methylpiperazin-1-yl)phenyl]amino}-2-(prop-2-en-1-yl)-1H,2H,3H-pyrazolo[3,4-d]pyrimidin-3-one]
inhibition of MAPK14 (p38 alpha) [1]: − (inhibition under 50% (tested at 300-350 nM))
EC50 ([2]; 8 h, Table 2, colorectal cancer cells, eight hours incubation, read-out: ELISA p-CDC2 EC50): 12 nM
EC50 ([2]; Table 3, read-out: ELISA p-CDC2 EC50): 12 nM
EC50 ([2]; Table 5, data obtained as described in the experimental section of the current invention, read-out: ELISA/nM): 12 nM
inhibition of TEK (Tie2) [3]: − (inhibition under 50% (tested at 300-350 nM))
inhibition of IGF1R [4]: − (inhibition under 50% (tested at 300-350 nM))
inhibition of FRAP1 (mTOR) [5]: − (inhibition under 50% (tested at 300-350 nM))
inhibition of PDGFRB (PDGFR beta) [6]: − (inhibition under 50% (tested at 300-350 nM))
inhibition of CHEK1 (CHK1) [7]: − (inhibition under 50% (tested at 300-350 nM))
inhibition of MAPK8 (JNK1) [8]: − (inhibition under 50% (tested at 300-350 nM))
inhibition of RPS6KB1 (p70S6K) [9]: − (inhibition under 50% (tested at 300-350 nM))
inhibition of SRC [10]: − (inhibition under 50% (tested at 300-350 nM))
inhibition of MARK2 [11]: − (inhibition under 50% (tested at 300-350 nM))
inhibition of INSR [12]: − (inhibition under 50% (tested at 300-350 nM))
inhibition of EGFR (ErbB1) [13]: − (inhibition under 50% (tested at 300-350 nM))
inhibition of RPS6KA3 (RSK2) [14]: − (inhibition under 50% (tested at 300-350 nM))
inhibition of SYK [15]: − (inhibition under 50% (tested at 300-350 nM))
selectivity against a panel of 50 kinases [16]: greater selectivity
EC50 [17]: 29 nM
